Assay results published in patent US10987345B2, “Method for assessing the efficacy of IMiDs and composition or combination for use in treating IMiD sensitive diseases” (Klinikum Rechts Der Isar Der Technischen Universitat Munchen, priority 2014, dated 2021).

How the values were obtained:
Zebrafish larvae = experiment: Zebrafish teratotoxicity phenotype at 3 dpf; format: in vivo; conditions: for Phenotype after CD147 knock-down by morpholino: 0.1 mM or 0.25 mM morpholino injected, 3 dpf
Procedure: Briefly, Zebrafish larvae were injected with different concentrations of splice-Morpholinos targeting all 3 predicted CD147 isoforms in zebrafish or treated with 400 μM Thalidomide on the day of fertilization. On day and 3 after fertilization, the phenotypes of the larvae were analysed.
The wildtype strain AB was used in all experiments. All embryos were kept at 28.5° C. in E3 media (5 mM NaCl, 0.17 mM KCl, 0.33 mM CaCl2, 0.33 mM MgSO4) supplemented with 10^−5% methylene blue. All experiments were performed in accordance with animal protection standards of the Ludwig-Maximilians University Munich and were approved by the government of Upper Bavaria (Regierung von Oberbayem, Munich, Germany).
Knock-down of CD147 in zebrafish was done by microinjection of 2-4 pl of 0.1 mM or 0.25 mM antisense morpholino oligo (Gene Tools, LLC) targeting either a splice junction of CD147 (CD147 splice MO; exonic sequence in upper case: 5′-aagaggtgaagaacatacAAGTGTT-3′ (SEQ ID NO: 18) or the ATG start codon (CD147 ATG MO; 5′-[…]-3′ (SEQ. ID NO: 39) at the 1 cell stage. Injected eggs and controls were cultured at 28° C. in E3 buffer. For each experiment, 50 eggs were injected.
For thalidomide treatment, fertilized embryos were randomly split into two groups at 3 hours post fertilization (hpf): One group was transferred into E3 containing 0.1% DMSO, the other group into E3 with 400 μM thalidomide (Sigma-Aldrich) and kept at 28.5° C. for 3 days.
Larvae were analyzed for Phenotypes at 3 days post fertilization (dpf). For each experiment, 10 embryos were treated. CD147 splice MO-injected larvae were compared to control larvae and thalidomide treated larvae were compared to DMSO controls. Larvae were anesthetized with Tricaine (0.016% w/v) and mounted in 3% methylcellulose on coverslips. DIC images were taken with an Axioplan2 compound microscope (Zeiss).

CD147/MCT1 complex = experiment: Immunoblot analysis of CD147 and MCT1 protein levels in myeloma cells; format: cell-based, human; conditions: MM1S cells; 10 μM lenalidomide, 100 nM pomalidomide, 100 μM thalidomide
Procedure: HEK 293T and HeLa cells were grown in Dulbecco's modified Eagle's Medium (DMEM), each media containing 10% fetal bovine serum. (FBS). The human multiple myeloma cell lines MM1.S, U266, KMS-12-BM, RPMI 8226 and JJN3 were cultured in RPMI-1640 with 10% FBS. […] Sf9 insect cells (Life technologies) were cultured in Sf-900 II serum-free medium (SFM, Life technologies) supplemented with 10% heat-inactivated FBS and 10 μg/ml gentamycin. High Five cells (Invitrogen) were cultured in Express Five SFM supplemented with 10 mM L-glutamine and 10 μg/ml gentamycin. All cells tested mycoplasma negative by a PCR detection method.
Cell samples were lysed in lysis buffer (NaCl 150 mM, Tris-HCl 50 mM, MgCl2 5 mM, EDTA 1 mM, INP-40 0.1%, Glycerol 5% and inhibitors) for whole cell lysates, immunoprecipitations or pulldown experiments. Details of extract preparation, immunoprecipitation, and immunoblotting, were previously described. Briefly, the cellular lysates were centrifuged 15 min at 14 000 rpm at 4° C. to separate from cellular debris. Protein concentration in the supernatants was measured before Laemmli buffer was added. The lysates were separated by SDS-PAGE and blotted onto PVDF (polyvinylidene difluoride) membranes. After blotting, PVDF membranes were stained With. Ponceau solution to evaluate protein loading. After washing and blocking unspecific bindings in 5% milk; the membranes were incubated with primary antibodies. After addition of horseradish peroxidase coupled secondary antibodies, western blot membranes were developed using the ECL (enhanced chemoluminescence) method (SuperSignal West reagents from Thermo Scientific). For immunoprecipitations (IPs), cell lysates were incubated with Flag-M2 agarose beads (Sigma) for Flag-IPs, HA-7 agarose beads (Sigma) for HA-IPs, or protein-A sepharose beads (GE Healthcare) together with primary rabbit antibodies for binding of endogenous proteins (e.g. for CRBN-IP). For the experiments using a protein cross linker, DSS (Pierce) was added to the cells to a final concentration of 1 mM for 45 minutes at RT. The Cross linker was quenched by addition of Tris-HCl, pH 7.5 20 mM and cell lysis was performed as described, with the only exception of HEPES buffer 50 mM, pH 7.5 instead of Tris-HCl buffer. After washing the beads four times in lysis buffer, Laemmli buffer was added and proteins were analyzed by SDS-electrophoresis.

IKZF1/3 = experiment: Immunoblot analysis of IKZF1/IKZF3 in myeloma cells; format: cell-based, human; conditions: MM1S cells; 10 μM lenalidomide, 100 nM pomalidomide, 100 μM thalidomide
Procedure: HEK 293T and HeLa cells were grown in Dulbecco's modified Eagle's Medium (DMEM), each media containing 10% fetal bovine serum. […] The human multiple myeloma cell lines MM1.S, U266, KMS-12-BM, RPMI 8226 and JJN3 were cultured in RPMI-1640 with 10% FBS. […] Sf9 insect cells (Life technologies) were cultured in Sf-900 II serum-free medium (SFM, Life technologies) supplemented with 10% heat-inactivated FBS and 10 μg/ml gentamycin. High Five cells (Invitrogen) were cultured in Express Five SFM supplemented with 10 mM L-glutamine and 10 μg/ml gentamycin. All cells tested mycoplasma negative by a PCR detection method.
Cell samples were lysed in lysis buffer (NaCl 150 mM, Tris-HCl 50 mM, MgCl2 5 mM, EDTA 1 mM, INP-40 0.1%, Glycerol 5% and inhibitors) for whole cell lysates, immunoprecipitations or pulldown experiments. […] Briefly, the cellular lysates were centrifuged 15 min at 14 000 rpm at 4° C. to separate from cellular debris. Protein concentration in the supernatants was measured before Laemmli buffer was added. The lysates were separated by SDS-PAGE and blotted onto PVDF (polyvinylidene difluoride) membranes. After blotting, PVDF membranes were stained With. […] After washing the beads four times in lysis buffer, Laemmli buffer was added and proteins were analyzed by SDS-electrophoresis.

CD147 [1] = experiment: Pulse chase analysis of CD147 protein maturation in MM1S cells; format: cell-based, human; conditions: 35S-Met/Cys pulse-chase
Procedure: In a complementary approach using pulse-chase analysis, CD147 protein maturation from the immature core-glycosylated to the mature high-glycosylated form necessary for membrane localization was investigated. […] Importantly, treatment with MLN4924, an inhibitor of Cullin-RING ubiquitin ligases, had no effect on CD147 stability or processing, thereby further underscoring a ubiquitin-independent effect of CRBN on CD147 (FIG. 13h).
Labelling of MM1S cells with ^35S-Met/Cys was essentially performed as described previously. […] Newly translated proteins were metabolically labeled for 45 Minutes with methionine- and cysteine-free DMEM containing 0.2 mCi/ml [35S]-Met/Cys. Cells were then washed three times with PBS (37° C.) and incubated with DMEM for up to 24 hours.

CD147 [2] = experiment: Semiquantitative RT-PCR verification of CD147 knockdown in zebrafish; format: in vivo; conditions: CD147 splice morpholino at indicated concentrations
Procedure: For verification of efficient CD147 knock-down in zebrafish embryos, total RNA of larvae injected with CD147 splice morpholino or control was extracted using the QIAshredder and RNeasy Kit (both Qiagen); cDNA synthesis was performed as described above. PCR reactions were performed on the peqSTAR2x gradient thermocycler (Peqlab) following standard procedures and using the following primers: […]
One fifth of the PCR reaction was loaded onto an agarose gel and subjected to gel electrophoresis.

Row | Compound | Phenotype after CD147 knock-down by morpholino (Zebrafish larvae) | Destabilization of CD147/MCT1 (CD147/MCT1 complex) | IKZF1/3 degradation (IKZF1/3) | further results
1 | ATG MO: antisense morpholino oligo targeting the ATG start codon of CD147, 5′-GCGCCAAAGAGCTTCTTTTCCATGC-3′ (SEQ. ID NO: 39) (all phosphorodiamidate morpholino (PMO)) | identical phenotypes as thalidomide treatment |  |  | 
2 | O=C1CCC(N2C(=O)c3ccccc3C2=O)C(=O)N1 (stereo not drawn) [thalidomide, α-N-phthalimido-glutarimide] |  | destabilize CD147/MCT1 | restricted to lenalidomide and pomalidomide | Teratotoxic phenotype (Zebrafish larvae; 400 μM thalidomide, 3 days post fertilization): teratotoxic phenotype, including reduced size of head, fins, and eyes
3 | NS(=O)(=O)OC[C@@H]1C[C@@H](n2ccc3c(N[C@H]4CCc5ccccc54)ncnc32)C[C@@H]1O [MLN4924] |  |  |  | CD147 stability or processing (CD147 [1]): no effect
4 | splice MO: antisense morpholino oligo targeting a splice junction of CD147, 5′-aagaggtgaagaacatacAAGTGTT-3′ (SEQ ID NO: 18) (antisense AAGAGGTGAAGAACATACAAGTGTT; all phosphorodiamidate morpholino (PMO)) | identical phenotypes as thalidomide treatment |  |  | CD147 knockdown (RT-PCR) (CD147 [2]): efficient and dose dependent CD147 knockdown
5 | Nc1cccc2c1C(=O)N(C1CCC(=O)NC1=O)C2=O (stereo not drawn) [pomalidomide] |  | destabilize CD147/MCT1 | restricted to lenalidomide and pomalidomide | 
